# Like-named read-outs stand apart in the source and are kept apart here.
# Legend:
# intraocular pressure [1] = details: rabbits; topical to the cornea; cited from earlier work
# retina = details: FIG. 5; topical 10 μl one hour before ischemia insult; ERG one week after insult
# Procedure: FIG. 5 is a bar graph showing the results of a study to determine the topical efficacy of brimonidine in neuroprotection. The rat acute retinal ischemia model was used to provide the noxious action. Brimonidine was applied topically one hour before ischemia insult, 10 μl to one eye, 10 μl saline to the other eye. The ERG (electroretinogram) was measured one week after the insult.
# intraocular pressure [2] = details: cats; topical to the cornea; cited from earlier work
# intraocular pressure [3] = details: monkeys; topical to the cornea; cited from earlier work
# [4] = test system: rat hippocampal neuronal cultures; assay: Glutamate induced excitotoxic effects on nerve cells (percentage of dead cells, trypan blue); assay type: cell-based; details: FIG. 1; day 8; 1 mM glutamate; AGN-191103 0.1 nM, MK-801 10 nM
# Procedure: Low-density rat hippocampal neuronal cultures were prepared by the procedure of Goslin and Banker. […] Coverslips (13 mm) were placed in staining racks, rinsed in distilled water (four rinses, 1 min. each) to remove dust and transferred to concentrated HNO3 for 36 hours. Coverslips were rinsed in distilled water (four changes over 3 hours) and sterilized with dry heat (overnight at 225° C.). The coverslips were transferred to 24-well dishes, one coverslip per well. To support the coverslips above the glia during coculturing, paraffin dots were placed on dishes, and UV irradiation (30 min.) was applied before the coverslips were introduced. One mg/mL of poly-L-lysine hydrobromide (PLL) (Sigma) (MW 30,000-70,000) was dissolved in borate buffer (0.1 M, pH 8.5), filtered, sterilized and used to cover each coverslip overnight. The PLL was removed, coverslips were rinsed in distilled water (two washes, 2 hrs. each), plating medium [Eagle's MEM with Earle's salts containing extra glucose (600 mg/L) and 10% horse serum] was added and the dishes were stored in an incubator. […]
# After 24 hrs. of incubation, cells were stained with trypan blue. Live and dead neurons were counted from randomly selected culture fields (5 fields from each coverslip). Percentage of dead cells was calculated.
# rat optic nerve = details: FIG. 3, optic nerve crush in rats
smiles,measurement,setting,value
Brc1c(NC2=NCCN2)ccc2nccnc12 [brimonidine],reduction of intraocular pressure,intraocular pressure [1],effective in reducing intraocular pressure
same,topical neuroprotection (percent of ERG signal recovery),retina,provides topical neuroprotection in a dose dependent manner
same,reduction of intraocular pressure,intraocular pressure [2],effective in reducing intraocular pressure
same,reduction of intraocular pressure,intraocular pressure [3],effective in reducing intraocular pressure
"C[C@]12N[C@H](Cc3ccccc31)c1ccccc12 [MK-801, dizocilpine]",protection of cells from glutamate induced neurotoxicity (percentage of cells killed),[4],comparable effects in protecting cells from glutamate induced neurotoxicity
Clc1cccc(Cl)c1N=C1NCCN1 [clonidine],maximal CAP response relative to AGN 191103,rat optic nerve,about half the maximal CAP response of AGN 191013
same,neuroprotective activity (maximal CAP amplitude) versus vehicle,rat optic nerve; four concentrations,some neuroprotective activity over vehicle alone

# From patent US8455492B2, “Methods for treating retinal diseases” (Allergan, Inc., priority 1995, dated 2013)
